Measured values published in patent US20130101530A1, “ANTIMICROBIAL PRESERVATIVE COMPOSITIONS FOR PERSONAL CARE PRODUCTS” (GALAXY SURFACTANTS LTD., priority 2011, published 2013).
Where two headings read alike, the source gives them in different places.

Key:
[1] = Reduction in surface tension of water; assay type: physicochemical
Experimental: The ‘liquid alcohol ether’ as used herein like 2-ethyl hexyl glyceryl ether is also a surfactant where the hydrophobe is provided by octyl group and the hydrophilic portion is the two hydroxyl groups of glycerine moiety and the ether linkage.
A mixture of octanoic acid (114 g, […]), BHT (0.3 g) and monoethanol amine (61 g, […]) is stirred under nitrogen blanket in a pressure vessel at 140° C. for 4 hr and then the temperature is raised to 165° C. for additional one hour. At this stage, acid value is normally found to be around 5 or less. The reaction was then cooled under mild vacuum to 60° C. and the molten mass is converted into off-white flakes (148 g, 95%) by pouring it on a glass plate. (Melting point 62-64° C., acid value 5, IR (KBr): 1640 cm^−1 (carbonyl of amide), 1556 cm^−1, 2919 cm^−1, 3289 cm^−1 (NH of amide) Reduction is surface tension of water: 0.05% solution, 38.5 dyne/cm, 0.1% solution 30.5 dyne/cm.

[2] = tested on: Escherichia coli ATCC 10142; assay: Minimum inhibitory concentration; assay type: cell-based; conditions: ATCC10142
[3] = tested on: Malassezia furfur MTCC 1374; assay: Minimum inhibitory concentration; assay type: cell-based; conditions: MTCC1374
[4] = tested on: Staphylococcus aureus ATCC 6538S; assay: Minimum inhibitory concentration; assay type: cell-based; conditions: ATCC6538S
[5] = tested on: Aspergillus niger ATCC 16404; assay: Minimum inhibitory concentration; assay type: cell-based; conditions: ATCC16404, Aspergillus niger
[6] = tested on: Bacillus subtilis ATCC 9372; assay: microbe, parasite or virus in culture; assay type: cell-based; conditions: ATCC9372
[7] = tested on: Propionibacterium acnes MTCC 1951; assay: Minimum inhibitory concentration; assay type: cell-based; conditions: Cutibacterium acnes, MTCC1951
[8] = tested on: Pseudomonas aeruginosa Immuno type IV; assay: Minimum inhibitory concentration; assay type: cell-based
[9] = tested on: Candida albicans ATCC 10231; assay: Minimum inhibitory concentration; assay type: cell-based; conditions: ATCC10231
[10] = tested on: all types of microbes (Gram positive, Gram negative bacteria, yeast and mould; the chosen eight organisms); assay: Minimum inhibitory concentration, whole panel; assay type: cell-based; conditions: up to 1.0% concentration; bacteria, yeast and mould
[11] = 0.1% aqueous solution at 25° C.; water 72 dynes/cm; cited from earlier work

Compound: CCCCCCCC(=O)NCCO [Octanoyl MEA amide, N-(2-hydroxylethyl)caprylic acid amide]
- Surface tension of water ([1]; 0.05% level): 38 dynes/cm
- Surface tension of water ([1]; 0.1% concentration): 30 dynes/cm
- MIC ([2]; Escherichia coli ATCC 10142, read-out: MINIMUM INHIBITORY CONCENTRATION): > 10000 µg/mL
- MIC ([2]; in Preservative Blend No 2 (10:10:80), Escherichia coli, read-out: Concentration of individual component at MIC of Preservative Blend No 2): 300 µg/mL
- MIC ([3]; Malassezia furfur MTCC 1374, read-out: MINIMUM INHIBITORY CONCENTRATION): > 10000 µg/mL
- MIC ([3]; in Preservative Blend No 2 (10:10:80), Malassezia furfur, read-out: Concentration of individual component at MIC of Preservative Blend No 2): 400 µg/mL
- MIC ([4]; Staphylococcus aureus ATCC 6538S, read-out: MINIMUM INHIBITORY CONCENTRATION): > 10000 µg/mL
- MIC ([4]; in Preservative Blend No 2 (10:10:80), Staphylococcus aureus, read-out: Concentration of individual component at MIC of Preservative Blend No 2): 300 µg/mL
- MIC ([5]; in Preservative Blend No 2 (10:10:80), read-out: Concentration of individual component at MIC of Preservative Blend No 2): 200 µg/mL
- MIC ([5]; read-out: MINIMUM INHIBITORY CONCENTRATION): > 10000 µg/mL
- MIC ([6]; Bacillus subtilis ATCC 9372, read-out: MINIMUM INHIBITORY CONCENTRATION): > 10000 µg/mL
- MIC ([6]; in Preservative Blend No 2 (10:10:80), Bacillus subtilis, read-out: Concentration of individual component at MIC of Preservative Blend No 2): 200 µg/mL
- MIC ([7]; Propionibacterium acnes MTCC 1951, read-out: MINIMUM INHIBITORY CONCENTRATION): > 10000 µg/mL
- MIC ([7]; in Preservative Blend No 2 (10:10:80), Propionibacterium acnes, read-out: Concentration of individual component at MIC of Preservative Blend No 2): 200 µg/mL
- MIC ([8]; Pseudomonas aeruginosa Immuno type IV, read-out: MINIMUM INHIBITORY CONCENTRATION): > 10000 µg/mL
- MIC ([8]; in Preservative Blend No 2 (10:10:80), Pseudomonas aeruginosa, read-out: Concentration of individual component at MIC of Preservative Blend No 2): 300 µg/mL
- MIC ([9]; Candida albicans ATCC 10231, read-out: MINIMUM INHIBITORY CONCENTRATION): > 10000 µg/mL
- MIC ([9]; in Preservative Blend No 2 (10:10:80), Candida albicans, read-out: Concentration of individual component at MIC of Preservative Blend No 2): 200 µg/mL
- Antimicrobial activity of the ingredient alone [10]: did not exhibit any antibacterial activity

Compound: CCCCC(CC)COCC(O)CO (centres unmarked) [2-ethyl hexyl glyceryl ether, 3-(2-ethylhexyl) oxy 1,2-propanediol]
- Surface tension of water [11]: 32 dynes/cm
